Results taken from patent US20220177841A1, “EX VIVO METHODS FOR PRODUCING A T CELL THERAPEUTIC AND RELATED COMPOSITIONS AND METHODS” (Myst Therapeutics LLC, priority 2019, published 2022).
“Also recorded” adds a separate entry of the source. Peptide text beside a SMILES is read from it. * marks the point of attachment. Cbz = O=C(OCc1ccccc1)*; CH2F = FC*

Assays:
[1] = tested on: expanded human T cells from three healthy donors; experiment: T cell adjuvant high throughput screen, total viable CD3+ cell count; format: cell-based; conditions: 6 days; for total viable CD3+ cell count compared with DMSO treatment control: 10 μg/mL antibodies, 25 μM Z-VAD-FMK, irrespective of activation status (with or without OKT3)
Description: Cells were expanded from PBMC derived from Ficoll gradient separation from three healthy donor's apheresis material. […] Cells were next seeded into gas permeable 100M culture vessels and expanded for 7-14 days to achieve a large bank of T cells, and cryopreserved. […] Half of wells were additionally supplemented with 50 ng/mL OKT3, a human anti-CD3 monoclonal antibody. In total, 15 test adjuvant agents were tested for their impact on cell viability in the presence and absence of anti-CD3 activation (see Table E3). Cells were cultured for 6 days total, including a 50% medium exchange on culture day 3, and monitored for total viable CD3+ cell count.
Total viable CD3+ cell count for cells grown in the absence and presence of OKT3 stimulation are shown in FIGS. 27A-C and FIGS. 28A-C, respectively. The results shown are for the following concentrations of adjuvant: 10 μg/mL for tested antibodies (Tavolixizumab, Oxelumab, Ipilimumab, Tocilizumab, Urelumab, Pembrolizumab, Varlilumab, anti-GITR MK-1248, anto-human FasL); 25 μM for Z-VAD-FMK pan-caspase inhibitor; 250 nM for HSP inhibitor NVP-HSP990; and 1000 IU/mL for cytokine (IL-7, IL-15 or IL-21).

[2] = tested on: PBMC from two healthy donors; experiment: Checkpoint modulators and costimulatory agonist antibodies on T cell phenotype, flow cytometry; format: cell-based, human; conditions: 0.5, 1, 10, or 20 μg/mL; 50 ng/ml OKT3; 48 hours
Description: Cells were then seeded into a 24-well gas permeable cell culture plate at a density of 5.0×10^5 cells/cm^2. Cells were activated for 48 hours using 50 ng/ml OKT3, a human anti-CD3 monoclonal antibody, and were additionally treated with agents as described below. Following 48 hours in culture, cells were analyzed for phenotype.
Cells were divided into 6 treatment groups, as follows: Ipilimumab (anti-CTLA4), Pembrolizumab (anti-PD1), Tavolixizumab (anti-TNFRSF4), Urelumab (anti-CD137), and Varlilumab (anti-CD27), as well as a no added agent control. For all test groups, cells in each treatment group were cultured in the presence of the monoclonal antibodies at 0.5, 1, 10, or 20 μg/mL.
None of the tested antibodies appeared to affect the memory differentiation state of the T cells. T cell phenotype was assessed for CD4+and CD8+cells independently via flow cytometry for markers of activation OX40, 41BB, CD107a, and PD1. Results are shown in FIG. 38 (CD3+), FIG. 39 (CD4+) and FIG. 40 (CD8+). Higher concentrations of Varlilumab, an agonist anti-CD27 antibody, promoted 41BB and CD107a expression on CD3+ T cells (FIG. 38B and 38C), CD4+ T cells (FIG. 39B and 39C) and CD8+ T cells (FIGS. 40B and 40C). Urelumab, an agonist CD137 receptor antibody, promoted 41BB expression on CD4 T cells (FIG. 39B) and CD8+ T cells (FIG. 40B). Pembrolizumab, an anti-PD-1 antagonist, decreased PD1 expression on CD4 T cells (FIG. 39D)

[3] = tested on: CRC tumor fragment and SCS cultures; experiment: Caspase inhibition in tumor processing, fragment or SCS cultures; format: cell-based, human
Description: Half of cultures contained media additionally supplemented with 2 μM of pan-caspase inhibitor Z-VAD-FMK which was replenished at each media exchange. Cultures were incubated at about 37° C. for a minimum of 18 days with a 50% medium exchange occurring every 2-3 days following culture day 5. Cell counts were performed on day 5 and at each medium exchange using the NC-200 Automated Cell Counter (ChemoMetec).

[4] = tested on: PBMC from two healthy donors; experiment: T cell expansion with Fas ligand or caspase inhibition, anti-CD3/anti-CD28 stimulation (transient or continuous activation); format: cell-based, human; conditions: 2 μM
Description: (§1) Apoptotic inhibitors directed against Fas- and caspase-mediated pathways were assessed to determine effects on tumor reactive T cells during manufacturing. The studies were carried out in healthy donors, and thus, stimulation of the T cells were carried out with anti-CD3 (OKT3) or anti-CD3/anti-CD28 stimulation in order to mimic conditions present in the tumor microenvironment (TME). Constant activation signals present in the tumor microenvironment, as can be stimulated by anti-CD3 or anti-CD3/anti-CD28 activation can be detrimental to T cell growth. Cellular viability and projected cell numbers were used to compare the impact of modulation of apoptotic pathways in both a transient and a continuous activation assay, the latter of which more closely recapitulates the tumor microenvironment.
Cells were then seeded into a 24-well gas permeable cell culture plate at a density of 1.5×10^5 cells/mL (5.0×10^5cells/cm^2).
Culture wells were assigned to one of two treatment groups, transient or continuous activation. For transient activation, anti-CD3/anti-CD28 paramagnetic beads (Dyanbeads™) were added to the culture media at a ratio of 1 bead per cell starting on culture day 0, and then were removed during media exchange on day 2. […]
Cell counts and viability were monitored every other day. […]

[5] = tested on: PBMC from three healthy donors; experiment: T cell expansion with Fas ligand or caspase inhibition, anti-CD3 stimulation; format: cell-based, human; conditions: OKT3 activation, caspase inhibitor 2 μM present continuously, replenished each media exchange
Description: as §1
Immune Cell Serum Replacement (ThermoFisher) at 5%, and a final concentration of 2.0 mM of a L-alanyl-L-glutamine dipeptide form of glutamine (GlutaMAX Supplement; Thermofisher). Cells were then seeded into a 24-well gas permeable cell culture plate at a density of 2.14×10^5 cells/mL (7.5×10^5 cells/cm^2). […]
Cultures were maintained for at least 13 days with a 50% media exchange every other day beginning on culture day 2. Cell counts and viability were monitored every other day. […]

[6] = tested on: T-cells from three healthy donors; experiment: Post-stimulation CD4+ and CD8+ activation markers, flow cytometry; format: cell-based, human; conditions: 50 ng/mL OKT3, compared to culture in the absence of OKT3
Description: Specific markers of activation on the CD4+ and CD8+ cell populations were measured using flow cytometry over a time course of 3-48 hours. Specifically, the following markers were assessed: CD38 and CD39 (FIG. 12A and FIG. 13A), CD134 and CD137 (FIG. 12B and FIG. 13B), and CD69 and CD90 (FIG. 12C and FIG. 13C).

[7] = tested on: cells processed from melanoma tumor fragments; experiment: Anti-CD3 stimulation on expansion of tumor-derived cells; format: cell-based, human
Description: Cells processed from melanoma tumor fragments as described in Examples 1 and 2, were cultured in the presence or absence of 50 ng/mL OKT3, a human anti-CD3 monoclonal antibody. Cell cultures were carried out to between 14 and 31 days in either a conventional 6-well plate or a gas permeable culture plate with RPMI or OpTmizer media. […] About 50% of cellular media was exchanged every other day beginning on the 5th day of culture as described previously. Cells were then counted using the NC-200 Automated Cell Counter (Chemometec).

[8] = presence versus absence of 50 ng/mL OKT3, 14 to 31 days

**Q.** Which “dose response, cell number” value ([1]; 62.5 IU/ml-1000 IU/ml) does the source give for “IL-15: recombinant cytokine tested as T cell adjuvant” here?
**A.** The value was “cell number increased with increasing concentration”.

**Q.** Which “41BB expression on CD3+ T cells” value [2] does the source give for Varlilumab: agonist anti-CD27 antibody here?
**A.** Its value is “promoted”.

**Q.** And the “41BB expression on CD4+ T cells” value [2]?
**A.** The value was “promoted”.

**Q.** And the “41BB expression on CD8+ T cells” value [2]?
**A.** Its value is “promoted”.

**Q.** And the “CD107a expression on CD3+ T cells” value [2]?
**A.** The value was “promoted”.

**Q.** And the “CD107a expression on CD4+ T cells” value [2]?
**A.** Its value is “promoted”.

**Q.** And the “CD107a expression on CD8+ T cells” value [2]?
**A.** The value was “promoted”.

**Q.** Which “total viable CD3+ cell count compared with DMSO treatment control” value [1] does the source give for `COC(=O)C[C@H](NC(=O)[C@H](C)NC(=O)[C@@H](NC(=O)OCc1ccccc1)C(C)C)C(=O)CF` [Z-VAD-FMK, carbobenzoxy-valyl-alanyl-aspartyl-[O-methyl]-fluoromethylketone] (Cbz-Val-Ala-Asp(OMe)-CH2F) here?
**A.** The value was “consistently higher viable cell counts than the DMSO treatment control”.

**Q.** What about the “outgrowth of T cells” value ([3]; SCS conditions) of the same compound?
**A.** The value was “outgrowth of T cells was not observed”.

**Q.** And the cell viability ([3]; SCS culture, 2 μM replenished at each media exchange)?
**A.** Its cell viability is “similarly high”.

**Q.** And the cell viability ([3]; tumor fragment-derived culture, 2 μM replenished at each media exchange)?
**A.** The cell viability was “high”.

**Q.** And the “outgrowth of cells (fold expansion, total viable cells)” value ([3]; tumor fragment-derived culture, 2 μM replenished at each media exchange, minimum 18 days)?
**A.** Its value is “outgrowth of cells was superior”.

**Q.** And the “total viable cell number and viability versus other conditions” value ([4]; caspase inhibitor continuously)?
**A.** The value was “outperformed the other conditions”.

**Q.** What about the “total viable cell number and viability versus other conditions” value ([4]; caspase inhibitor transiently (day 0 only)) of the same compound?
**A.** Its value is “outperformed the other conditions”.

**Q.** And the “cell growth (total cell number)” value [5]?
**A.** Its value is “greatest cell growth across donors”.

**Q.** What about the “cell growth (total cell number)” value ([5]; listed as caspase inhibition) of the same compound?
**A.** The value was “superior growth”.

**Q.** How did the “total viable CD3+ cell count compared with DMSO treatment control” value [1] turn out when Oxelumab: anti-OX40L antibody was run?
**A.** The value was “consistently higher viable cell counts than the DMSO treatment control”.

**Q.** How did the “41BB expression on CD4+ T cells” value [2] turn out when “Urelumab: agonist CD137 receptor antibody” was run?
**A.** The value was “promoted”.

**Q.** And the “41BB expression on CD8+ T cells” value [2]?
**A.** The value was “promoted”.

**Q.** Which “upregulation of activation markers (CD38, CD39, CD134, CD137, CD69, CD90) on CD8+ T cells” value ([6]; 48 hours following stimulation) does the source give for “OKT3: human anti-CD3 monoclonal antibody” here?
**A.** The value was “all assessed markers were upregulated to some extent”.

**Q.** What about the “upregulation of activation markers (CD38, CD39, CD134, CD137, CD69, CD90) on CD4+ T cells” value ([6]; first 48 hours following stimulation) of the same compound?
**A.** The value was “all assessed markers were upregulated to some extent”.

**Q.** What about the T cell expansion ([7]; 50 ng/mL OKT3, 14 to 31 days, 300 or 6000 IU/mL IL-2) of the same compound?
**A.** The T cell expansion was “supported T cell expansion”.

**Q.** And the fold expansion ([7]; donor 6, all conditions, presence or absence of anti-CD3 stimulation)?
**A.** Its fold expansion is 2-4 fold.

**Q.** What about the fold expansion [7, 8] of the same compound?
**A.** The fold expansion was “largely similar; also recorded: did not substantially impact”.

**Q.** What about the total cell number [7, 8] of the same compound?
**A.** Its total cell number is “largely similar; also recorded: did not substantially impact”.

**Q.** With Pembrolizumab: anti-PD1 antibody as the compound, how does the “total viable CD3+ cell count compared with DMSO treatment control” value [1] read?
**A.** The value was “consistently higher viable cell counts than the DMSO treatment control”.

**Q.** And the “PD1 expression on CD4 T cells” value [2]?
**A.** Its value is “decreased”.
